Measurements from patent US20080227866A1, “Hydroxyphenylalkadiones and Their Use for Masking Bitter Taste and/or for Intensifying Sweet Taste” (SYMRISE GMBH & CO. KG, priority 2005, published 2008).

Tests used:
[1] = Bitterness reduction in a bitter principle solution, rated by a group of experts (caffeine); type: in vivo; conditions: 100 ppm substance in aqueous 500 ppm caffeine; for % reduction in the bitter impression: calculated from the average panel values; for Bitter impression (1-10) with: panel mean ± 95% confidence interval
Method: In order to quantify the reduction in the bitter impression, the bitterness of an aqueous bitter principle solution and of a sample which contained the same amount of bitter principle and a varying amount of the compound given by way of example was determined by a group of experts ([…]). The evaluation was made as a calculation of the reduction (in %) of the bitter impression from the average values of the estimations of the bitter principle solution and of the solutions containing bitter principle and compound given by way of example. 2,4-Dihydrobenzoic acid (2,4-DHB) was used as a comparison from U.S. Pat. No. 5,643,941. HED means homoeriodictyol sodium salt according to EP 1 258 200 B1.
(§1) Table: Bitterness of a bitter principle solution and of a solution containing bitter principle and a compound given by way of example (2,4-DHB=2,4-dihydroxybenzoic acid, HED=homoeriodictyol sodium salt according to EP 1 258 200 B1). “Testers positive” means the number of testers who were able to detect masking; the 95% confidence intervals are stated as errors; p<x means the significance according to the Student t test method (cf. statistics textbooks), n.s. means not significant.

[2] = Bitterness reduction in a bitter principle solution, rated by a group of experts (quinine hydrochloride); type: in vivo; conditions: 100 ppm substance in aqueous 5 ppm quinine hydrochloride
Method: In order to quantify the reduction in the bitter impression, the bitterness of an aqueous bitter principle solution and of a sample which contained the same amount of bitter principle and a varying amount of the compound given by way of example was determined by a group of experts (classification 0 [not bitter] to 10 [extremely bitter]). The evaluation was made as a calculation of the reduction (in %) of the bitter impression from the average values of the estimations of the bitter principle solution and of the solutions containing bitter principle and compound given by way of example. 2,4-Dihydrobenzoic acid (2,4-DHB) was used as a comparison from U.S. Pat. No. 5,643,941. HED means homoeriodictyol sodium salt according to EP 1 258 200 B1.
as §1

[3] = Intensification of the sweet impression of a sucrose solution, rated by a group of experts; type: in vivo; conditions: 100 ppm test compound in 5 wt. % sucrose; for % intensification of the sweet impression: calculated from the average panel values; for Sweet impression (1-10) of a 5% strength sucrose solution with Test substance: panel mean ± standard deviation; for number of testers who found the test solution sweeter: second figure in brackets (total/positive)
Method: In order to quantify the intensification of the sweet impression, the sweetness of a solution containing 5 wt. % of sucrose and of a sample which contained 5 wt. % of sucrose and 100 ppm of the test compound was determined by a group of experts (classification 0 [not sweet] to 10 [extremely sweet]). The evaluation was made as a calculation of the intensification (in %) of the sweet impression from the average values of the estimations of the sucrose solution and of the solution containing sucrose and compound 2.
Table: Sweetness (a) of a sucrose solution and (b) of a solution containing sucrose and test substance; the standard deviations are stated as errors. In the last column, the total number of testers is stated against the number of testers who found the test solution sweeter.

[4] = described in DE 2 161,528; cited from earlier work

Compound	Testers positive (number of testers who were able to detect masking) [1]	% reduction in the bitter impression [1]	Bitter impression (1-10) with [1]	Testers positive (number of testers who were able to detect masking) [2]	% reduction in the bitter impression ([2]; calculated from the average panel values)	Bitter impression (1-10) with ([2]; panel mean ± 95% confidence interval)	% intensification of the sweet impression [3]	Sweet impression (1-10) of a 5% strength sucrose solution with Test substance [3]	number of testers who found the test solution sweeter [3]	antihypertensive action [4]
O=C(O)c1ccc(O)cc1O [2,4-DHB, 2,4-dihydroxybenzoic acid, reference compound]	9	3%, n.s.	5.0 ± 1.0							
COc1cc(/C=C/C(=O)CC(C)=O)ccc1O [compound 1, (5E)-6-(4-hydroxy-3-methoxyphenyl)hex-5-ene-2,4-dione]	9	21%,	5.1 ± 1.0							
COc1cc(CCC(=O)CC(C)=O)ccc1O [compound 4, 6-(4-hydroxy-3-methoxyphenyl)hexane-2,4-dione]	15	34%,	3.9 ± 0.8	10	21%,	1.3 ± 0.8	+13%	5.3 ± 1.6	9	
COc1cc(CCC(=O)C2C(=O)CCC2=O)ccc1O [compound 9, 2-(3-[4-hydroxy-3-methoxyphenyl]propionyl)-cyclopentane-1,3-dione]										weak antihypertensive agent
COc1ccc(/C=C/C(=O)CC(C)=O)cc1O [compound 10, (5E)-6-(3-Hydroxy-4-methoxyphenyl)hex-5-ene-2,4-dione]	12	23%	4.6 ± 0.9							
COc1ccc(CCC(=O)CC(C)=O)cc1O [compound 11, 6-(3-hydroxy-4-methoxyphenyl)hexane-2,4-dione]	11	17%, n.s.	4.2 ± 0.8				+28%	6.6 ± 1.2	13	
